# Literature values, collected in paper PMC10998826 (EJNMMI Research, 2024).
# Conditions: active metabolite of sacubitril; cited from earlier work
# Method: Sacubitril (AHU377) is a potent inhibitor of the NEP. The combination of sacubitril and the angiotensin-receptor blocker valsartan (Entresto®) is effective in reducing the risks of death and of hospitalization for heart failure and is approved for this indication in numerous countries. The highest blood plasma concentration of its active metabolite, LBQ657, is measured around two hours after oral intake.
smiles,measurement,value
C[C@H](C[C@@H](Cc1ccc(-c2ccccc2)cc1)NC(=O)CCC(=O)O)C(=O)O [LBQ657],Time of highest blood plasma concentration after oral intake,around two
